Legend:
Test in all cases: Tyrosine kinase inhibition assay
Format in all cases: biochemical
Conditions in all cases: single concentration 1.0 μM, read-out: percent inhibition
EPHB4 = target: T1, EPHB4 (Homo sapiens, UniProt P54760)
T1 sequence (P54760 16-987): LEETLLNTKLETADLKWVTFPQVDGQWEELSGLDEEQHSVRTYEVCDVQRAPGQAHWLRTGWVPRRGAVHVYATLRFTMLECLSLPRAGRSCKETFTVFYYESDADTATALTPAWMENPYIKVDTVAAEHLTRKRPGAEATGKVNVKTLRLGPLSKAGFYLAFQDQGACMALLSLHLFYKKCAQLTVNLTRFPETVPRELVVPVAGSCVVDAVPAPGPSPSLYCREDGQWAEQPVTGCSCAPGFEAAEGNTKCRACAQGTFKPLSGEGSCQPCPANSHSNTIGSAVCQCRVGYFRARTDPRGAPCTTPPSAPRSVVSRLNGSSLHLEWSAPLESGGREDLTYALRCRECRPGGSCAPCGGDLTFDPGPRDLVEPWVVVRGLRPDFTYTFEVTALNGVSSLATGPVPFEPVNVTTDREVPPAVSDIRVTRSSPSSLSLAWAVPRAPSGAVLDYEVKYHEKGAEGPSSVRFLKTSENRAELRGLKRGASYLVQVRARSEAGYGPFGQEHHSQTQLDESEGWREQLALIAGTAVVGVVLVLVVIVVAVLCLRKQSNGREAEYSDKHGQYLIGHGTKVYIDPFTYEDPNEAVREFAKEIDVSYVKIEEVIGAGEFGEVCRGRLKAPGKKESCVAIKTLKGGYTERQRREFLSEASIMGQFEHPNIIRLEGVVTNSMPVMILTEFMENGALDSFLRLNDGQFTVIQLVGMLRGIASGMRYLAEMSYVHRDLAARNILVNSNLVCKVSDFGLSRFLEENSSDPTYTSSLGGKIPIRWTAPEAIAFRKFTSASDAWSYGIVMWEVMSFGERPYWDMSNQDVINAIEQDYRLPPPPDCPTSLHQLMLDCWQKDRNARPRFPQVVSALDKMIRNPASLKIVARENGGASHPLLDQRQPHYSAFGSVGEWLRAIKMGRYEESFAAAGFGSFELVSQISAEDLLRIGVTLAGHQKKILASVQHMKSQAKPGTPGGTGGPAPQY
Outline: (§1)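 Values are percent inhibition at 1.0 μM compound, with inhibition above 80% defined as a hit. Peptide substrate phosphorylation was assessed by Z′-LYTE at apparent-Km ATP in HEPES pH 7.5 buffer containing MgCl2, EGTA and BRIJ-35.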

TNK1 = target: T2, TNK1 (Homo sapiens, UniProt Q13470)
T2 sequence (Q13470 1-666): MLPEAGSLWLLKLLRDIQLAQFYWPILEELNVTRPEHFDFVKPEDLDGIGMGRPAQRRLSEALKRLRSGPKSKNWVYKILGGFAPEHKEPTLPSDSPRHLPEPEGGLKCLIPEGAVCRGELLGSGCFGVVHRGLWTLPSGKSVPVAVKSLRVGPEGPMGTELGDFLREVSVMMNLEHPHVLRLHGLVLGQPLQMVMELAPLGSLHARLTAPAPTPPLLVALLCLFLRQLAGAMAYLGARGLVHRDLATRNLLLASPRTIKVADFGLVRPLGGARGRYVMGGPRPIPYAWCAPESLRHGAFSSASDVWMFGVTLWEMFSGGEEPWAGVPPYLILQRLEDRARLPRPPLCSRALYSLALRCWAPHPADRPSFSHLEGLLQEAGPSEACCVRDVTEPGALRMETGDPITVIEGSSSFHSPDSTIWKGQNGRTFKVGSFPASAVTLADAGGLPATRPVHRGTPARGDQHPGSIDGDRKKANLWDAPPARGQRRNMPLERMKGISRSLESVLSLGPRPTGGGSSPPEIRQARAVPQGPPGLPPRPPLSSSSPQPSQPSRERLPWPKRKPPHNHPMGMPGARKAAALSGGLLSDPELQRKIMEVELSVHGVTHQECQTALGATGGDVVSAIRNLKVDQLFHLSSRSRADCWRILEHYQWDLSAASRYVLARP
Outline: as §1

PIK3C2A (PI3K-C2 alpha) = PIK3C2A (PI3K-C2 alpha) (Homo sapiens, UniProt O00443)
PIK3C2A (PI3K-C2 alpha), sequence (O00443 whole entry): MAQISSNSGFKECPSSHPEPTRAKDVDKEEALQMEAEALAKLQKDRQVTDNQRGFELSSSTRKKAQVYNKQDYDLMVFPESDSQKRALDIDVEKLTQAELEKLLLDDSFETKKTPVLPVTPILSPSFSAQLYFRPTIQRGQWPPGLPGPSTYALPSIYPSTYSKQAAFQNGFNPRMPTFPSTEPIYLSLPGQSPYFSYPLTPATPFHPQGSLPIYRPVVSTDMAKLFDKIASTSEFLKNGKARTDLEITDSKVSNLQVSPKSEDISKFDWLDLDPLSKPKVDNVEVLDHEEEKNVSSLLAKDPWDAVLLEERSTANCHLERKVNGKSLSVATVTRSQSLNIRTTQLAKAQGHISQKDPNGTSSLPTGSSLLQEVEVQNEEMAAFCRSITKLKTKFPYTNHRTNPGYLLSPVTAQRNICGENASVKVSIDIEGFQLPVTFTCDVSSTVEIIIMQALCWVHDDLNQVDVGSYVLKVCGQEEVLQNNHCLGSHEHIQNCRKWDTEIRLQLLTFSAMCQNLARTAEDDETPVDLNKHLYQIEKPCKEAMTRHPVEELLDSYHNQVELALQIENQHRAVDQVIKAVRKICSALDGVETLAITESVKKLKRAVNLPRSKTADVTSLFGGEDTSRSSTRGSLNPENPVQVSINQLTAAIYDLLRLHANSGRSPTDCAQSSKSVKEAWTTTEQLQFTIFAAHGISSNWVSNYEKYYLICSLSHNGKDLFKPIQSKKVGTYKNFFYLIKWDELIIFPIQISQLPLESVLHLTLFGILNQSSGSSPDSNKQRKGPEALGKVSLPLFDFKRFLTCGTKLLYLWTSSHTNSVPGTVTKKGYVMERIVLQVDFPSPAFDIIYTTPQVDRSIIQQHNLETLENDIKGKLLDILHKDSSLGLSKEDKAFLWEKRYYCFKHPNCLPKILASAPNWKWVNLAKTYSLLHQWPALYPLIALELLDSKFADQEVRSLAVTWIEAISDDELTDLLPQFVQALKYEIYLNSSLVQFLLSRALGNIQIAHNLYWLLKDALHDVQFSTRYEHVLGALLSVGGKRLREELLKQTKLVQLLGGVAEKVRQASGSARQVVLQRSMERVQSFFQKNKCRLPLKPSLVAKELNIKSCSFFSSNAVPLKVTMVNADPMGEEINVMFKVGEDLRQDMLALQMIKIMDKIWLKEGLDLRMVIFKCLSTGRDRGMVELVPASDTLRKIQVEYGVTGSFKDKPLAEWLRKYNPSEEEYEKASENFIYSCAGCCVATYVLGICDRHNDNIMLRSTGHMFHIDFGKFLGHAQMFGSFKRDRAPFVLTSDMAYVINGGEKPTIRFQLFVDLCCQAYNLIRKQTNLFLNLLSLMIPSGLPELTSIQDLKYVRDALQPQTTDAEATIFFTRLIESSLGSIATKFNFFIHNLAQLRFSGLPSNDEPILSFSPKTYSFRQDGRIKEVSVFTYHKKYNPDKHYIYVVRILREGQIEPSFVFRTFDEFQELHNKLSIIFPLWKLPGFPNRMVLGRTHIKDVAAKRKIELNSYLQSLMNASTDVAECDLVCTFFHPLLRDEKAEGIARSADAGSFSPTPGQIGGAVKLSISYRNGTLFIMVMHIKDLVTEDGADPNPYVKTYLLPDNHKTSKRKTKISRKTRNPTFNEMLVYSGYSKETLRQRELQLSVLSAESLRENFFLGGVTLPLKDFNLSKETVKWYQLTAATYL
Outline: as §1

Compound	inhibition at 1 µM (EPHB4) [%]	inhibition at 1 µM (TNK1) [%]	inhibition at 1 µM (PIK3C2A (PI3K-C2 alpha)) [%]
COc1cc2nccc(Oc3ccc(NC(=O)C4(C(=O)Nc5ccc(F)cc5)CC4)cc3F)c2cc1Oc1ccc(N)cc1F [Cbo-23]	103	92	-9
COc1cc2nccc(Oc3ccc(NC(=O)C4(NC(=O)c5ccc(F)cc5)CC4)cc3F)c2cc1Oc1ccc(N)cc1F [Cbo-10]	50	39	-1
COc1cc2nccc(Oc3ccc(NC(=O)C4(NC(=O)c5ccc(F)cc5)CC4)cc3F)c2cc1OC [Cbo-02, N-(1-((4-((6,7-diMethoxyquinolin-4-yl)oxy)-3-fluorophenyl)carbamoyl)cyclopropyl)-4-fluorobenzamide]	27	17	1
COc1cc2nccc(Oc3ccc(NC(=O)C4(NC(=O)c5ccc(F)cc5)CC4)cc3F)c2cc1Oc1c(F)cc(N)cc1F [Cbo-14]	76	64	1
COc1cc2nccc(Oc3ccc(NC(=O)C4(C(=O)Nc5ccc(F)cc5)CC4)cc3)c2cc1OC [Cabozantinib, reference compound]	93	74	1
